A short description of data set [1]: Stability of ligands in 0.1 M PBS (UV/Vis concentration). Type of data set: physicochemical. The settings on record: for conc.: storage 3,5 h (EC), 22 h (CAT), 15 h (PC B1, PC B2, PC C1); for difference rt and 277 K: same storage times. As to the method:
Flavan-3-ols were dissolved in 0.1 M phosphate buffer containing 0.04 M NaCl at pH 7. Final concentrations were determined by UV/Vis spectroscopy at 298 K (quartz glass cuvette, light path 10 mm, Hellma Analytics, SPECTROstar Nano, BMG Labtech) using the following absorption coefficients ε at 280 nm: CAT, 3340 [L/mol cm]; EC, 3470 [L/mol cm]; PC B1, 6800 [L/mol cm]; […] PC C1, 10,000 [L/mol cm] according to Kaeswurm et al.[33] All ligand solutions were stored at 253 K. The data analysis for the interaction studies was conducted using software NanoAnalyze, with manual integration of the peaks. To correct the data for noninteraction-related heats, the mean heat released during the final three injections was subtracted as a constant blank. This procedure is an effective estimation strategy that minimizes errors during the fitting process, provided that the protein is fully saturated.[35] The data were fitted using the “independent” model. To prevent overparametrization, n was set to 1, while Ka and ΔH were maintained as variables, as recommended for low-affinity binding.[35],[36] The stability of the ligand at room temperature was ensured by monitoring the concentrations prior to and following the experiment (S5).

Data set [2] deals with T1, porcine pancreatic α-amylase (Sus scrofa, UniProt P00690).
T1 sequence (P00690 16-511): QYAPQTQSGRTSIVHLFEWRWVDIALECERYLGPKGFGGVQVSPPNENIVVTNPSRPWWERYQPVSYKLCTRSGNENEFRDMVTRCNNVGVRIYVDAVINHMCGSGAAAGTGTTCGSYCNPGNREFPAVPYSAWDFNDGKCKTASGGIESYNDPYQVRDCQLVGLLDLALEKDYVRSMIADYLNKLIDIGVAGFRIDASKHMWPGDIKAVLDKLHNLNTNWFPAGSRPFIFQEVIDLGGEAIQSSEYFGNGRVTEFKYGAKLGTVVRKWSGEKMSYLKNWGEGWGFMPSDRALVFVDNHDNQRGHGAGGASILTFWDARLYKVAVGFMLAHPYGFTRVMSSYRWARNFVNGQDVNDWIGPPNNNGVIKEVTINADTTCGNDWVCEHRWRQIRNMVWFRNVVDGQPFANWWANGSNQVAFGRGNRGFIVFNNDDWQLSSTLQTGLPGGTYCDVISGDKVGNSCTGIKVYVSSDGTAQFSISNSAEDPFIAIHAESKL
Nature of the data set: Saturation transfer difference (STD)-NMR interaction study. Type of data set: binding. Particulars: for saturation protein–ligand aliph., corrected by a blank / saturation protein–ligand arom., corrected by a blank / saturation aliph. / saturation arom.: 10 μM α-amylase, 1 mM ligand, 298 K; for saturation protein–ligand arom., corrected by a blank: catechol ring protons; for saturation aliph. / saturation arom.: head prints 'blank', values are protein–ligand not corrected by a blank; for ratio aliph.: share of aliphatic proton saturation; for ratio arom.: share of aromatic proton saturation. An excerpt:
STD-NMR parameters were optimized based on the Bruker standard pulse sequence stddiffgp19.3 using a protein and ligand blank sample. The irradiation frequency (FQ2), saturation time (D20), saturation pulse selectivity (SPW9), and power of the saturation pulse (P42) were varied to achieve maximum selective protein saturation (S2). The best saturation of the α-amylase, with 60%, was obtained with FQ2 = 0.5 ppm, D20 = 3 s, SPW9 = 35 dB, and P42 = 50 ms. The pseudo-2D experiment allows simultaneous acquisition of the on-resonance spectrum (with selective protein saturation) and the off-resonance spectrum (without protein saturation). The subtraction of both FIDs yields the STD-NMR spectrum (S3). The off-resonance spectrum serves as a reference spectrum for the determination of ligand saturation by intensity comparison with the STD-NMR spectrum. The protein blank sample contained 10 μM α-amylase, and the ligand blank was acquired with 1.1 mM flavan-3-ol in 0.1 M phosphate buffer/0.04 M NaCl (D2O/H2O, 90/10, v/v). Interaction studies were performed with 10 μM α-amylase and 1 mM (ligand). The software package TopSpin 3.2 of Bruker BioSpin was used for data acquisition and processing.

As for `Oc1cc(O)c2c(c1)O[C@H](c1ccc(O)c(O)c1)[C@H](O)[C@H]2c1c(O)cc(O)c2c1O[C@H](c1ccc(O)c(O)c1)[C@@H](O)C2` [PC B1, procyanidin B1], the conc. in data set [1] (277 K) is recorded as 4,28 ± 0,20 mM. Also, the conc. in data set [1] (room temperature (rt)) is given as 4,10 ± 0,29 mM. Moreover, the “difference rt and 277 K” value in data set [1] is reported as 0,18 mM. In data set [2], the “saturation protein–ligand aliph., corrected by a blank” value was 11%; the “saturation protein–ligand arom., corrected by a blank” value is on record as 14%; the saturation aliph. is reported as 11%; the saturation arom. is listed as 14%. In addition, in data set [2], the ratio aliph. worked out at 44 and the ratio arom. is reported as 56.
Turning to `Oc1cc(O)c2c(c1)O[C@H](c1ccc(O)c(O)c1)[C@@H](O)C2` [CAT, (+)-Catechin], the conc. in data set [1] (277 K) is reported as 3,94 ± 0,24 mM. Further, in data set [1] (room temperature (rt)), the conc. was 4,02 ± 0,21 mM. In addition, in data set [1], the “difference rt and 277 K” value is listed as 0,08 mM. Also, in data set [2], the “saturation protein–ligand aliph., corrected by a blank” value came out at 3%; the “saturation protein–ligand arom., corrected by a blank” value turned out to be 11%; the saturation aliph. was determined as 5%; the saturation arom. was 13%. Besides, in data set [2], the ratio aliph. was determined as 21 and the ratio arom. came to 79.
Regarding `Oc1cc(O)c2c(c1)O[C@H](c1ccc(O)c(O)c1)[C@H](O)[C@H]2c1c(O)cc(O)c2c1O[C@H](c1ccc(O)c(O)c1)[C@H](O)[C@H]2c1c(O)cc(O)c2c1O[C@H](c1ccc(O)c(O)c1)[C@H](O)C2` [PC C1, procyanidin C1], in data set [1] (277 K), the conc. is listed as 4,60 ± 0,42 mM. In data set [1] (room temperature (rt)), the conc. is given as 4,29 ± 0,30 mM. In addition, the “difference rt and 277 K” value in data set [1] is 0,31 mM. Further, in data set [2], the “observation in the STD-NMR sample with α-amylase” value is reported as “visible precipitation”; the “saturation protein–ligand aliph., corrected by a blank” value is on record as 7%; the “saturation protein–ligand arom., corrected by a blank” value is 11%; the saturation aliph. is 7%. Further, in data set [2], the saturation arom. came to 11%, the ratio aliph. is 39 and the ratio arom. worked out at 61. The “PC C1 concentration in solution after precipitation” value in data set [2] (after STD experiment, 1 mM PC C1, 10 μM α-amylase) came to 0.35 mM. For the same molecule, the “decrease of PC C1 in solution after precipitation” value in data set [2] (integrals of aromatic protons, off-resonance spectrum vs pure ligand blank, 1 mM PC C1, 10 μM α-amylase) is recorded as “roughly 65%”.
Turning to `Oc1cc(O)c2c(c1)O[C@H](c1ccc(O)c(O)c1)[C@H](O)C2` [EC, (−)-Epicatechin], the conc. in data set [1] (277 K) is listed as 3,99 ± 0,25 mM. Moreover, the conc. in data set [1] (room temperature (rt)) is on record as 4,23 ± 0,24 mM. Also, the “difference rt and 277 K” value in data set [1] is listed as 0,24 mM. In data set [2], the “saturation protein–ligand aliph., corrected by a blank” value is on record as 6%; the “saturation protein–ligand arom., corrected by a blank” value is 21%; the saturation aliph. was found to be 6%; the saturation arom. was 21%. Further, in data set [2], the ratio aliph. is on record as 21 and the ratio arom. is given as 79.
As to `Oc1cc(O)c2c(c1)O[C@H](c1ccc(O)c(O)c1)[C@H](O)[C@H]2c1c(O)cc(O)c2c1O[C@H](c1ccc(O)c(O)c1)[C@H](O)C2` [PC B2, procyanidin B2], the conc. in data set [1] (277 K) is reported as 4,46 ± 0,24 mM. For the same molecule, the conc. in data set [1] (room temperature (rt)) was 4,56 ± 0,21 mM. For the same molecule, the “difference rt and 277 K” value in data set [1] is on record as 0,11 mM. Moreover, in data set [2], the “saturation protein–ligand aliph., corrected by a blank” value came out at 6%; the “saturation protein–ligand arom., corrected by a blank” value came out at 9%; the saturation aliph. came to 6%; the saturation arom. was found to be 9%. Moreover, in data set [2], the ratio aliph. was 40 and the ratio arom. came out at 60.

For the origin of these results see paper PMC12007089, “Applying Isothermal Titration Calorimetry and Saturation Transfer Difference-NMR to Study the Mode of Interaction of Flavan-3-ols with α-Amylase to Understand Their Impact on Starch Hydrolysis” (Journal of Agricultural and Food Chemistry, 2025).
